What was measured:
[1] = molecular target: T1, RAC-alpha serine/threonine-protein kinase (Homo sapiens, UniProt P31749); assay: Inhibition of human recombinant Akt1
[2] = molecular target: T2, RAC-beta serine/threonine-protein kinase (Homo sapiens, UniProt P31751); assay: Inhibition of human recombinant Akt2
[3] = molecular target: T1, RAC-alpha serine/threonine-protein kinase; assay: Inhibition of Akt1 phosphorylation in human C33a cells; assay type: cell-based
[4] = molecular target: T2, RAC-beta serine/threonine-protein kinase; assay: Inhibition of Akt2 phosphorylation in human C33a cells; assay type: cell-based
[5] = Clearance in dog at 0.25 mg/kg, iv; assay type: ADME, organism-based, Canis lupus familiaris; parameters: dose 0.25 mg/kg, route intravenous; conditions: in vivo
[6] = Half life in dog at 0.25 mg/kg, iv; assay type: ADME, organism-based, Canis lupus familiaris; parameters: dose 0.25 mg/kg, route intravenous; conditions: in vivo

T1 sequence (P31749 whole entry): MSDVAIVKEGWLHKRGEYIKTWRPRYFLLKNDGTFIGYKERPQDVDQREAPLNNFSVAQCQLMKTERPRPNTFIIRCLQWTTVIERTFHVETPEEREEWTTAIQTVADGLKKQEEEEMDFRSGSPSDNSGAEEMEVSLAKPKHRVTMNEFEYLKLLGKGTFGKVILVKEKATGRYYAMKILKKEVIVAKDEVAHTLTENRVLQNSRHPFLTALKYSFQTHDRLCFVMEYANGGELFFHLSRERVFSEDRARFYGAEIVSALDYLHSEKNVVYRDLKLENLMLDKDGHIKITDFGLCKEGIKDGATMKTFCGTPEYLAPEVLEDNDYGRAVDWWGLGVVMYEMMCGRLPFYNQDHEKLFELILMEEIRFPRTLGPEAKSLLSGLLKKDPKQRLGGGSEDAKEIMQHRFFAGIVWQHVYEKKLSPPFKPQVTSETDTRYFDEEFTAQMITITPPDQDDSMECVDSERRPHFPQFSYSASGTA
T2 sequence (P31751 whole entry): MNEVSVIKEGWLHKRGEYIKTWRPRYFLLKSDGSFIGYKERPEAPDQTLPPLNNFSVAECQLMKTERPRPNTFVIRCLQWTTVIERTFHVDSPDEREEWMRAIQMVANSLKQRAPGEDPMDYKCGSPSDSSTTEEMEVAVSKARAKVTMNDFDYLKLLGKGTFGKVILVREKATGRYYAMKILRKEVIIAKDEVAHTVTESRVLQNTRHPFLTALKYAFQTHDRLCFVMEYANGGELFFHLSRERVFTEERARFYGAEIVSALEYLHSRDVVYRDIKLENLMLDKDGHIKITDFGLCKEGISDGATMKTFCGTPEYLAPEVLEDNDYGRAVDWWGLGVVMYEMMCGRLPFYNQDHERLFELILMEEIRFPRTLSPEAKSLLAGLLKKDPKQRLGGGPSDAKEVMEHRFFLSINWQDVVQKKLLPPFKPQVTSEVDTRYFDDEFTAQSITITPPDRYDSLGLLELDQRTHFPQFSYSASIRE

Row | clearance [5] | half-life [6] | SMILES | IC50 [1] | IC50 [2] | IC50 [3] | IC50 [4]
1 |  |  | Nc1ncnc2nc(-c3ccc(CN4CCC(n5cnc6c(N)ncnc65)CC4)cc3)c(-c3ccccc3)cc12 | 129 nM | 696 nM |  | 
2 |  |  | Cc1nc2ccccc2n1C1CCN(Cc2ccc(-c3nc4ncnc(N)c4cc3-c3ccccc3)cc2)CC1 | 69 nM | 281 nM | 221 nM | 344 nM
3 |  |  | Nc1n[nH]c2nc(-c3ccc(CN4CCC(n5c(=O)[nH]c6ccccc65)CC4)cc3)c(-c3ccccc3)cc12 | 86 nM | 7360 nM |  | 
4 |  |  | Nc1nc(N)c2cc(-c3ccccc3)c(-c3ccc(CN4CCC(n5c(=O)[nH]c6ccccc65)CC4)cc3)nc2n1 | 107 nM | 274 nM |  | 
5 |  |  | Nc1nn(CCO)c2nc(-c3ccc(CN4CCC(n5c(=O)[nH]c6ccccc65)CC4)cc3)c(-c3ccccc3)cc12 | 131 nM | 1230 nM |  | 
6 |  |  | CN(C)c1nc(-c2ccc(CN3CCC(n4c(=O)[nH]c5ccccc54)CC3)cc2)c(-c2ccccc2)cc1C#N | 8460 nM | 15400 nM |  | 
7 |  |  | N#Cc1cc(-c2ccccc2)c(-c2ccc(CN3CCC(n4c(=O)[nH]c5ccccc54)CC3)cc2)nc1Cl | 253 nM | 7360 nM |  | 
8 |  |  | COc1nc(-c2ccc(CN3CCC(n4c(=O)[nH]c5ccccc54)CC3)cc2)c(-c2ccccc2)cc1C#N | 5550 nM | 37700 nM |  | 
9 |  |  | Nc1ncnc2nc(-c3ccc(CN4CCC(n5c(=O)[nH]c6ccccc65)CC4)cc3)c(-c3ccccc3)cc12 | 81 nM | 259 nM | 1830 nM | 5080 nM
10 |  |  | Nc1ncnc2nc(-c3ccc(CN4CCC(c5cc(-c6ccncc6)[nH]n5)CC4)cc3)c(-c3ccccc3)cc12 | 21 nM | 85 nM | 463 nM | 1200 nM
11 |  |  | Cn1nc(N)c2cc(-c3ccccc3)c(-c3ccc(CN4CCC(n5c(=O)[nH]c6ccccc65)CC4)cc3)nc21 | 121 nM | 556 nM |  | 
12 |  |  | Nc1nn(CCc2c[nH]cn2)c2nc(-c3ccc(CN4CCC(n5c(=O)[nH]c6ccccc65)CC4)cc3)c(-c3ccccc3)cc12 | 21 nM | 839 nM |  | 
13 |  |  | Nc1nc(O)nc2nc(-c3ccc(CN4CCC(n5c(=O)[nH]c6ccccc65)CC4)cc3)c(-c3ccccc3)cc12 | 244 nM | 577 nM |  | 
14 | 5.6 mL/min/kg | 168 min | Nc1ncnc2nc(-c3ccc(CN4CCC(c5nc6ccc(F)cc6[nH]5)CC4)cc3)c(-c3ccccc3)cc12 |  |  |  | 
15 |  |  | N#Cc1cc(-c2ccccc2)c(-c2ccc(CN3CCC(n4c(=O)[nH]c5ccccc54)CC3)cc2)nc1N | 495 nM | 2060 nM |  | 
16 |  |  | CNc1nc(-c2ccc(CN3CCC(n4c(=O)[nH]c5ccccc54)CC3)cc2)c(-c2ccccc2)cc1C#N | 2250 nM | 8140 nM |  | 

Reference: ChEMBL document CHEMBL1142344, “Rapid assembly of diverse and potent allosteric Akt inhibitors” (Bioorg Med Chem Lett, 2008)
